Measurements reported in patent publication US4311698A, “Aminoacid derivatives of cephalosporin compounds” (priority 1980, dated 1982).
In brackets after ≈: the same amount, converted by molar mass.

Columns and labels:
Format in all cases: cell-based
[1] = system: E. Coli. Brig; experiment: In vitro minimal inhibitory concentration, E. Coli. Brig; conditions: Escherichia coli
[2] = system: Staph S 18713; experiment: In vitro minimal inhibitory concentration, Staph S 18713
[3] = system: Pseudomonas BRK 12-4-4; experiment: In vitro minimal inhibitory concentration, Pseudomonas BRK 12-4-4; conditions: BRK1244
[4] = system: Staph UC76; experiment: In vitro minimal inhibitory concentration, Staph UC76
[5] = system: Prot Vulg.; experiment: In vitro minimal inhibitory concentration, Prot Vulg.
[6] = system: Strep. fec. MGH 2; experiment: In vitro minimal inhibitory concentration, Strep. fec. MGH 2
[7] = system: Serr. Mar. IMM 16; experiment: In vitro minimal inhibitory concentration, Serr. Mar. IMM 16
[8] = system: Pseudomonas #28; experiment: In vitro minimal inhibitory concentration, Pseudomonas #28; conditions: Pseudomonas #28; in vitro; read-out: Minimal Inhibitory Concentration
[9] = system: Klebs. Pneum. MGH 2; experiment: In vitro minimal inhibitory concentration, Klebs. Pneum. MGH 2
[10] = system: Pseudomonas UI 18; experiment: In vitro minimal inhibitory concentration, Pseudomonas UI 18; conditions: UI18
[11] = system: E. Coli. Vogel; experiment: In vitro minimal inhibitory concentration, E. Coli. Vogel; conditions: Escherichia coli
[12] = system: Entero Cloac. IM 11; experiment: In vitro minimal inhibitory concentration, Entero Cloac. IM 11

Row | Structure (SMILES) | MIC [1] [mg/L] | MIC [2] [mg/L] | MIC [3] [mg/L] | MIC [4] [mg/L] | MIC [5] [mg/L] | MIC [6] [mg/L] | MIC [7] [mg/L] | MIC [8] [mg/L] | MIC [9] [mg/L] | MIC [10] [mg/L] | MIC [11] [mg/L] | MIC [12] [mg/L]
1 | CC(=O)OCC1=C(C(=O)O)N2C(=O)C(NC(=O)[C@H](NC(=O)c3ccc(-c4ccc(NC(=O)[C@@H]5CCCN5C(C)=O)cc4)[nH]c3=O)c3ccccc3)C2SC1 (stereo partly drawn) [Example 12, N-[6-[4-(N-Acetyl-L-prolylamino)phenyl]-1,2-dihydro-2-oxonicotinyl]-7-[D-2-amino-2-phenylacetamido]-3-acetoxymethyl-3-cephem-4-carboxylic acid] | 6.3 (≈ 8.32 µM) | 3.1 (≈ 4.1 µM) | 12.5 (≈ 16.5 µM) | 0.8 (≈ 1.06 µM) | 25 (≈ 33 µM) | 12.5 (≈ 16.5 µM) | 50 (≈ 66.1 µM) | 6.3 (≈ 8.32 µM) | 6.3 (≈ 8.32 µM) | 6.3 (≈ 8.32 µM) | 3.1 (≈ 4.1 µM) | 12.5 (≈ 16.5 µM)
2 | CC(=O)N1CC(O)C[C@H]1C(=O)Nc1ccc(-c2ccc(C(=O)N[C@@H](C(=O)NC3C(=O)N4C(C(=O)O)=C(CSc5nnnn5CC(=O)O)CSC34)c3ccccc3)c(=O)[nH]2)cc1 (stereo partly drawn) [Example 30, N-[6-[4-(N-Acetyl-4-hydroxy-L-prolylamino)phenyl]-1,2-dihydro-2-oxonicotinyl]-7-[D-2-amino-2-phenylacetamido]-3-[[(1-carboxymethyl-1H-tetrazol-5-yl)thio]methyl]-3-cephem-4-carboxylic acid] | 3.1 (≈ 3.55 µM) | 25 (≈ 28.6 µM) | 12.5 (≈ 14.3 µM) | 6.3 (≈ 7.22 µM) | 1.6 (≈ 1.83 µM) | > 50 | 12.5 (≈ 14.3 µM) | 6.3 (≈ 7.22 µM) | 1.6 (≈ 1.83 µM) | 6.3 (≈ 7.22 µM) | 0.8 (≈ 0.916 µM) | 3.1 (≈ 3.55 µM)
3 | CC(=O)N[C@H](C)C(=O)Nc1cccc(-c2ccc(C(=O)N[C@@H](C(=O)NC3C(=O)N4C(C(=O)O)=C(COC(C)=O)CSC34)c3ccccc3)c(=O)[nH]2)c1 (stereo partly drawn) [Example 28] | 25 (≈ 34.2 µM) | 1.6 (≈ 2.19 µM) | 25 (≈ 34.2 µM) | 1.6 (≈ 2.19 µM) | 50 (≈ 68.4 µM) | 25 (≈ 34.2 µM) | > 50 | 12.5 (≈ 17.1 µM) | 25 (≈ 34.2 µM) | 12.5 (≈ 17.1 µM) | 12.5 (≈ 17.1 µM) | 50 (≈ 68.4 µM)
4 | CC(=O)OCC1=C(C(=O)O)N2C(=O)C(NC(=O)[C@H](NC(=O)c3ccc(-c4ccc(NC(=O)[C@@H]5CC(O)CN5C(C)=O)cc4)[nH]c3=O)c3ccccc3)C2SC1 (stereo partly drawn) [Example 31, N-[6-[4-(N-Acetyl-4-hydroxy-L-prolylamino)phenyl]-1,2-dihydro-2-oxonicotinyl]-7-[D-2-amino-2-phenylacetamido]-3-acetoxymethyl-3-cephem-4-carboxylic acid] | 12.5 (≈ 16.2 µM) | 25 (≈ 32.4 µM) | 12.5 (≈ 16.2 µM) | 0.8 (≈ 1.04 µM) | 25 (≈ 32.4 µM) | 25 (≈ 32.4 µM) | > 50 | 12.5 (≈ 16.2 µM) | 6.3 (≈ 8.15 µM) | 12.5 (≈ 16.2 µM) | 3.1 (≈ 4.01 µM) | 12.5 (≈ 16.2 µM)
5 | CC(=O)NCCCC[C@H](NC(C)=O)C(=O)Nc1ccc(-c2ccc(C(=O)N[C@@H](C(=O)NC3C(=O)N4C(C(=O)O)=C(COC(C)=O)CSC34)c3ccccc3)c(=O)[nH]2)cc1 (stereo partly drawn) [Example 35, N-[6-[4-(N,N'-Diacetyl-L-lysylamino)phenyl]-1,2-dihydro-2-oxonicotinyl]-7-[D-2-amino-2-phenylacetamido]-3-acetoxymethyl-3-cephem-4-carboxylic acid] | 25 (≈ 30.1 µM) | 6.3 (≈ 7.59 µM) | 12.5 (≈ 15.1 µM) | 3.1 (≈ 3.74 µM) | > 50 | 25 (≈ 30.1 µM) | > 50 | 12.5 (≈ 15.1 µM) | 12.5 (≈ 15.1 µM) | 6.3 (≈ 7.59 µM) | 6.3 (≈ 7.59 µM) | 12.5 (≈ 15.1 µM)
6 | CC(=O)NC(C)C(=O)Nc1ccc(-c2ccc(C(=O)N[C@@H](C(=O)NC3C(=O)N4C(C(=O)O)=C(CSc5nnnn5C)CSC34)c3ccccc3)c(=O)[nH]2)cc1 (mixture of isomers) [Example 18, N-[6-[4-(N-Acetyl-DL-alanylamino)phenyl]-1,2-dihydro-3-oxonicotinyl]-7-[D-2-amino-2-phenylacetamido]-3-[[(1-methyl-1H-tetrazol-5-yl)thio]methyl]-3-cephem-4-carboxylic acid] | 3.1 | 3.1 | 12.5 | 0.4 | 25 | 25 | 12.5 | 6.3 | 0.8 | 6.3 | 0.4 | 6.3
7 | CC(=O)N[C@H](CC(N)=O)C(=O)Nc1ccc(-c2ccc(C(=O)N[C@@H](C(=O)NC3C(=O)N4C(C(=O)O)=C(COC(C)=O)CSC34)c3ccccc3)c(=O)[nH]2)cc1 (stereo partly drawn) [Example 13, N-[6-[4-(N-Acetyl-D-aspariginylamino)phenyl]-1,2-dihydro-2-oxonicotinyl]-7-[D-2-amino-2-phenylacetamido]-3-acetoxymethyl-3-cephem-4-carboxylic acid] | 12.5 (≈ 16.2 µM) | 6.3 (≈ 8.14 µM) | 12.5 (≈ 16.2 µM) | 0.8 (≈ 1.03 µM) | 25 (≈ 32.3 µM) | 25 (≈ 32.3 µM) | > 50 | 12.5 (≈ 16.2 µM) | 6.3 (≈ 8.14 µM) | 6.3 (≈ 8.14 µM) | 3.1 (≈ 4.01 µM) | 12.5 (≈ 16.2 µM)
8 | CC(=O)OCC1=C(C(=O)O)N2C(=O)C(NC(=O)[C@H](NC(=O)c3ccc(-c4ccc(NC(=O)[C@@H]5CCC(=O)N5)cc4)[nH]c3=O)c3ccccc3)C2SC1 (stereo partly drawn) [Example 6, N-[6-[4-(L-Pyroglutamylamino)phenyl]-1,2-dihydro-2-oxonicotinyl]-7-[D-2-amino-2-phenylacetamido]-3-acetoxymethyl-3-cephem-4-carboxylic acid] | 25 (≈ 34.3 µM) | 3.1 (≈ 4.25 µM) | 12.5 (≈ 17.2 µM) | 0.8 (≈ 1.1 µM) | 25 (≈ 34.3 µM) | 25 (≈ 34.3 µM) | 50 (≈ 68.6 µM) | 12.5 (≈ 17.2 µM) | 6.3 (≈ 8.65 µM) | 6.3 (≈ 8.65 µM) | 3.1 (≈ 4.25 µM) | 12.5 (≈ 17.2 µM)
9 | CC(=O)N[C@@H](CCC(N)=O)C(=O)Nc1ccc(-c2ccc(C(=O)N[C@@H](C(=O)NC3C(=O)N4C(C(=O)O)=C(CSc5nnnn5C)CSC34)c3ccccc3)c(=O)[nH]2)cc1 (stereo partly drawn) [Example 9, N-[6-[4-(N-Acetyl-L-glutaminylamino)phenyl]-1,2-dihydro-2-oxonicotinyl]-7-(D-2-amino-2-phenylacetamido]-3-[[(1-methyl-1H-tetrazol-5-yl)thio]methyl]-3-cephem-4-carboxylic acid] | 3.1 (≈ 3.67 µM) | 3.1 (≈ 3.67 µM) | 6.3 (≈ 7.47 µM) | 0.4 (≈ 0.474 µM) | 6.3 (≈ 7.47 µM) | 25 (≈ 29.6 µM) | 12.5 (≈ 14.8 µM) | 3.1 (≈ 3.67 µM) | 0.8 (≈ 0.948 µM) | 6.3 (≈ 7.47 µM) | 0.4 (≈ 0.474 µM) | 1.6 (≈ 1.9 µM)
10 | O=C(O)Cn1nnnc1SCC1=C(C(=O)O)N2C(=O)C(NC(=O)[C@H](NC(=O)c3ccc(-c4ccc(NC(=O)[C@@H]5CCC(=O)N5)cc4)[nH]c3=O)c3ccccc3)C2SC1 (stereo partly drawn) [Example 16, N-[6-[4-(L-Pyroglutamylamino)phenyl]-1,2-dihydro-2-oxonicotinyl]-7-[D-2-amino-2-phenylacetamido]-3-[[(1-carboxymethyl-1H-tetrazol-5-yl)thio]methyl]-3-cephem-4-carboxylic acid] | 3.1 (≈ 3.74 µM) | 12.5 (≈ 15.1 µM) | 6.3 (≈ 7.6 µM) | 3.1 (≈ 3.74 µM) | 0.4 (≈ 0.483 µM) | 50 (≈ 60.3 µM) | 6.3 (≈ 7.6 µM) | 3.1 (≈ 3.74 µM) | 0.8 (≈ 0.965 µM) | 6.3 (≈ 7.6 µM) | 0.4 (≈ 0.483 µM) | 3.1 (≈ 3.74 µM)
11 | CC(=O)N[C@H](C)C(=O)Nc1ccc(-c2ccc(C(=O)N[C@@H](C(=O)NC3C(=O)N4C(C(=O)O)=C(CSc5nnnn5C)CSC34)c3ccccc3)c(=O)[nH]2)cc1 (stereo partly drawn) [Example 19, N-[6-[4-(N-Acetyl-D-alanylamino)phenyl]-1,2-dihydro-2-oxonicotinyl]-7-[D-2-amino-2-phenylacetamido]-3-[[(1-methyl-1H-tetrazol-5-yl)thio]methyl]-3-cephem-4-carboxylic acid] | 6.3 (≈ 8.01 µM) | 6.3 (≈ 8.01 µM) | 12.5 (≈ 15.9 µM) | 0.8 (≈ 1.02 µM) | 12.5 (≈ 15.9 µM) | 25 (≈ 31.8 µM) | 25 (≈ 31.8 µM) | 6.3 (≈ 8.01 µM) | 3.1 (≈ 3.94 µM) | 6.3 (≈ 8.01 µM) | 0.8 (≈ 1.02 µM) | 12.5 (≈ 15.9 µM)
